Values joined by “and” are separate entries in the source; they are usually repeats but may differ in a detail not shown here. Equal values may be shown once. Read-outs that look alike come from different tables or passages of the source.
Assays:
Type in all cases: cell-based
[1] = MTT cytotoxicity assay, HL60 cells; conditions: human, hl60 cells, HL60, 30 min., read-out: % Inhibition MTT Reduction
Excerpt: (§1) This experiment describes the affect of asperlin on cellular respiration (mitochondrial activity) by measuring the reduction of the tetrazolium salt MTT to formazan crystals (Moseman, et al). This assay served as a control to ensure that the decrease in the fluorescence observed in Example I, Table I, was not the result of the fluorescent dye leaking from the cells due to disruption of the cell membrane. To address this issue, the mitochondrial activity of β2 and β1 integrin expressing cells in the presence of asperlin was quantitated using a commercially available MTT cytotoxicity kit (Promega No. G4100).
(§2) HL60 and U937 cells were purchased from the American Type Culture Collection (ATCC) and maintained in RPMI 1640 culture media containing 10% heat inactivated fetal bovine serum (refer to Example I, materials). HL60 cells were used between passages 20 and 30. HL60 cells were stimulated by a four day exposure to DMSO, as described in Example I, materials. Falcon round bottom tissue culture plates (No. 3077) were used for the experiment. All remaining reagents were supplied in Promega's MTT cytotoxicity kit (Catalog No. G4100).
(§3) The assay procedure described in the Promega MTT kit was used with the following changes.
(§4) Asperlin was solubilized in 100% DMSO at a concentration of 50 mg/ml. The 50 mg/ml asperlin stock was diluted to 400 μg/ml with culture media containing 5% fetal bovine serum (FBS). This solution was further diluted to 80 and 20 μg/ml with culture media supplemented with 5% FBS plus 2% DMSO. 50 μl of the 20 and 80 μg/ml asperlin solutions were added to wells of a sterile, round bottom 96 well assay plate. Control wells received 50 μl of culture media containing 5% FBS plus 2% DMSO. Duplicate assay wells were prepared such that U937 and HL60 cells could be evaluated on the same plate. The cell density of β1 integrin expressing U937, and β2 integrin expressing HL60 cell cultures were determined using a hemacytometer.
(§5) Cells were harvested by centrifuging for 5 minutes at 1000 rpm, room temperature, in a Sorvall RT600 bench-top centrifuge. The HL60 cell pellet was resuspended in fresh culture media at a concentration of 5×10^6 cells/ml. The U937 cell pellet was resuspended in fresh culture media at a concentration of 2.5×10^6 cells/ml. 2.5×10^5 β2 integrin expressing HL60 cells, contained in 50 μl, were added to wells of the assay plate using a multichannel pipettor. In duplicate assay wells, 1.25×10^5 β1 integrin expressing U937 cells, contained in 50 μl, were added to wells of the assay plate using a multichannel pipettor. Assay plates were incubated for either 30 minutes, 60 minutes, or 4 hours in a 37° C. 5% CO2, humidified incubator.
(§6) At the appropriate time point, 15 μl of MTT reagent, supplied in the Promega assay kit, was added to each well using a multichannel pipettor. Assay plates were incubated in the 37° C. incubator, as just described, for two hours. The MTT reduction reaction was quenched, and the visible formazan crystals were solubilized by adding exactly 100 μl of Promega's solubilization buffer to each well. […] The optical density (OD) of each well of the assay plate was determined using a microtiter plate reader (Flow Labs) set at a wavelength of 580 nm with a correction wavelength of 630 nm.
(§7) Replicate sample ODs were average. The percentage of inhibition of cellular respiration (mitochondrial activity) by asperlin was quantitated by the following equation: […]

HL60 cells = assay: MTT cytotoxicity assay, HL60 cells; conditions: for Average Optical Density: HL60, 30 min.
Excerpt: as §1, §2, §3, §4, §5, §6, §7

E-selectin = target: T1, E-selectin (Homo sapiens, UniProt P16581); assay: Adhesion of HL60 cells to recombinant, soluble, human E-selectin; conditions: for Percent Cells Bound: single well
T1 construct: calcein-labelled HL60 cells adhere
T1 sequence (P16581 22-556 limits assumed): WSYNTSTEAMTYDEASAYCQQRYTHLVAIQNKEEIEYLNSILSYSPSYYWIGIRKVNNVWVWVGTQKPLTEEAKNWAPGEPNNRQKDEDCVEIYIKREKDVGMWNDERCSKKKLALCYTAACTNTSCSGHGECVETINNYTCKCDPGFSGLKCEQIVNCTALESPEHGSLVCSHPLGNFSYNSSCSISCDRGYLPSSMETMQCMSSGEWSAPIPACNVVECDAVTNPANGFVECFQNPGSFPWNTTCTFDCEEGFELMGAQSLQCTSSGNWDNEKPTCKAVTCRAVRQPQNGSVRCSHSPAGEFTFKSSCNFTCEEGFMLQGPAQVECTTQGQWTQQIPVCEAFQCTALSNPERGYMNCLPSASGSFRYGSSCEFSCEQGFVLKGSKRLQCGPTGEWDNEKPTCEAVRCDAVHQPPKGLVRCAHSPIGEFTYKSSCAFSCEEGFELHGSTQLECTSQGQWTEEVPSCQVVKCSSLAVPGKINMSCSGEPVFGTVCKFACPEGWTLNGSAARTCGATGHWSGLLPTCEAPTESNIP
Protocol: rsE-selectin was prepared and purified using standard molecular biology techniques. HL60 cells were obtained from American Type Culture Collection (ATCC) and maintained in culture media, as described in Example I, except that cells could be used in the assay at any passage number. Other materials required for the assay are as described in Examples I and II.
200 ng of purified, recombinant, soluble E-selectin contained in 100 μl of dPBS was added to wells of a flat bottom 96 well EIA/RIA plate. The control wells were filled with dPBS only and the assay plate was incubated at 4° C. for at least 18 hours to allow the rsE-selectin to bind to assay wells. The rsE-selectin solution was removed from the wells of the assay plate, washed, and blocked with 1% BSA, as described in Example II.
HL60 cells were harvested from culture, washed and labeled with calcein AM as outlined in Example I, except that the concentration of calcein used to label the HL-60 cells was 12.5 μM and cells were centrifuged at 1000 rpm for 5 minutes. After the final cell wash (see Example I), the cells were resuspended in ice-cold PMN buffer to 1.0×10^5 cells/40 μl and the cells were placed in the dark at room temperature until added to the assay plate.
The asperlin solutions were prepared as described in Example I. The dPBS remaining in the wells of the assay plate was removed by inverting the plate and tapping it on paper toweling and the assay was performed as described in Example II. 100 μl of PMN buffer was added to all wells of the assay plate and the fluorescence of the adherent HL-60 cells binding to rsE-selectin was measured using a fluorescent plate reader, described in Example I. The percentage of HL60 cells binding to E-selectin and the percentage of inhibition of HL60 cell adhesion to E-selectin in the presence of asperlin were also quantitated as described in Example II.

Compound: CC(=O)OC1C=CC(=O)OC1C1OC1C [Asperlin, 6,7-Anhydro-2,3,8-trideoxy-D-galacto-oct-2-enoic acidδ-lactone 4-acetate]
- cytotoxicity at 0.5 h ([1]; Asperlin 10 μg/mL): 8%
- cytotoxicity at 0.5 h ([1]; Asperlin 40 μg/mL): 27%
- Average Optical Density (HL60 cells; Asperlin 10 μg/mL): .819
- Average Optical Density (HL60 cells; Asperlin 40 μg/mL): .649
- Cytotoxicity (in words) (HL60 cells; β2 integrin expressing HL60 cells): not cytotoxic
- Average Percent Bound (E-selectin; Asperlin 100 μg/ml): 62%
- Bound Cell Fluorescence (E-selectin; Asperlin 100 μg/ml): 1412 fluorescence units/well and 1096 fluorescence units/well
- Percent Cells Bound (E-selectin; Asperlin 100 μg/ml): 64% and 59%
- Average Percent Bound (E-selectin; Asperlin 200 μg/ml): 48%
- Bound Cell Fluorescence (E-selectin; Asperlin 200 μg/ml): 1124 fluorescence units/well and 887 fluorescence units/well
- Percent Cells Bound (E-selectin; Asperlin 200 μg/ml): 52% and 44%
- inhibition at 100 µg/mL (E-selectin; HL-60, Asperlin 100 μg/ml): -19%
- inhibition at 200 µg/mL (E-selectin; HL-60, Asperlin 200 μg/ml): 8%
- Effect on E-selectin mediated HL60 cell binding (in words) (E-selectin; summary of Table III): does not inhibit E-selectin mediated HL60 cell binding
